Activity calls are given as the source filed them. The calls are words filed in the database; no cut-off is given here.
What was measured:
[1] = Binding affinity to Pyrococcus horikoshii sodium-coupled aspartate transporter
[2] = Binding affinity to Pyrococcus horikoshii sodium-coupled aspartate transporter by isothermal titration calorimetry in presence of NaCl
Pyrococcus horikoshii = assay: Inhibition of [3H]L-aspartate uptake at Pyrococcus horikoshii sodium-coupled aspartate transporter in presence of thallium
[3] = target: Glutamate transporter homolog (Pyrococcus horikoshii (strain ATCC 700860 / DSM 12428 / JCM 9974 /NBRC 100139 / OT-3), UniProt O59010, D405N); assay: Binding affinity to Pyrococcus horikoshii sodium-coupled aspartate transporter D405N mutant in presence of NaCl
Glutamate transporter homolog, sequence (O59010 whole entry D405N): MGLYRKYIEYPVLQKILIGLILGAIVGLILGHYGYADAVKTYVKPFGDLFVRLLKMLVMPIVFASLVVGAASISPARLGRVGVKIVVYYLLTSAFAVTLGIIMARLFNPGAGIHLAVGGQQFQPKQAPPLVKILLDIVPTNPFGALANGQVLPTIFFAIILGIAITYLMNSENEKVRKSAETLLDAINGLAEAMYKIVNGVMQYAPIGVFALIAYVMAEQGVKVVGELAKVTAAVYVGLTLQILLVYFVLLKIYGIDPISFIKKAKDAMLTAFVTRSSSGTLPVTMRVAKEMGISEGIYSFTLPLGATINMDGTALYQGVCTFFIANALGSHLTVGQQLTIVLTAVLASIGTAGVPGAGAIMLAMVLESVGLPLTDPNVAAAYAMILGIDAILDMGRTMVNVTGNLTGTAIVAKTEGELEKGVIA

Row | Structure (SMILES) | Kd [1] | other results
1 | N[C@@H](CO)C(=O)O [SERINE] | 160 µM | –
2 | N[C@@H](CC(=O)O)C(=O)O [ASPARTIC ACID] | – | Kd [2]: 0.094 µM; Activity (Pyrococcus horikoshii): inactive
3 | N[C@H](CCC(=O)O)C(=O)O [D-GLUTAMATE] | 162 µM | –
4 | NC(C(=O)O)C(OCc1ccccc1)C(=O)O (racemic) | – | Kd [3]: 0.1 µM
5 | N[C@@H](CS(=O)O)C(=O)O | 0.02 µM | –
6 | N[C@@H](CCC(=O)O)C(=O)O [GLUTAMIC ACID] | 122 µM | –
7 | O=C(O)CCC(=O)O [SUCCINIC ACID] | 1450 µM | –
8 | N[C@H](CC(=O)O)C(=O)O [D-ASPARTATE] | 0.009 µM | –
